# Reference: US20260199323A1, “LIGAND COMPOUNDS FOR E3 UBIQUITIN LIGASE, PROTEIN DEGRADERS DEVELOPED ON BASIS OF LIGAND COMPOUNDS, AND USES THEREOF” (GLUETACS THERAPEUTICS (SHANGHAI) CO., LTD., priority 2021, published 2026)
# Read-outs that look alike come from different tables or passages of the source.
# What was measured:
# [1] = tested on: CAL-62; assay: CCK-8 tumor cell proliferation, CAL-62; type: cell-based, Human; conditions: Homo sapiens, CAL-62
# Outline: (§1)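 Cell viability (CCK-8) after compound exposure; IC50 calculated. Cells seeded, treated after 24 h, maximum dose 10 μM, 5-fold serial dilutions over 10 concentrations.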
# [2] = tested on: Jurkat; assay: CCK-8 tumor cell proliferation, Jurkat; type: cell-based, Human; conditions: Homo sapiens
# Outline: as §1
# [3] = tested on: SU-DHL-4; assay: CCK-8 tumor cell proliferation, SU-DHL-4; type: cell-based, Human; conditions: read-out: IC50 inhibiting proliferation of tumor cells, SU-DHL-4
# Experimental: (§2) The tumor cells used herein were cultured in a cell culture medium listed in table 4 at 37° C. in an incubator with 5% CO2. Prior to experimentation, all cells used were correctly identified by STR profiling, and tested negative for mycoplasma through routine screenings.
# (§3) IC50 values of the compounds of the present disclosure (including the compounds in Tables 1 and 3, and compounds of examples) were measured using the Meilun Cell Counting Kit-8 kit from Dalian Meilun Biotech Co., Ltd. Assay details are as follows: tumor cells were seeded in a 96-well plate at a density listed in Table 5. After 24 h, 100 μL of the inoculated cells were treated with 0.5 μL of the compounds of the present disclosure (including the compounds in Tables 1 and 3, and compounds of examples) at 10 different successively decreasing concentrations (starting at the highest concentration of 10 μM; 5-fold serial dilutions). After the cells were treated with the compounds of the present disclosure for a period of time, the cell viability detection reagent was added to the culture medium for cell viability assessment according to the instructions provided with the CCK-8 kit. […] The growth inhibition of the compounds of the present disclosure on cells was plotted by Prism Graphpad software, and the IC50 values of the compounds of the present disclosure were calculated therefrom.
# [4] = tested on: MM.1R; assay: CCK-8 tumor cell proliferation, MM.1R; type: cell-based
# Outline: as §1
# [5] = tested on: CCRF-CEM; assay: CCK-8 tumor cell proliferation, CCRF-CEM; type: cell-based, Human; design: IC50 for inhibiting the proliferation of tumor cells, CCRF-CEM: scale not given here; conditions: for IC50: Homo sapiens, Table 19, IRAK4 inhibitor based, CCRF-CEM, read-out: IC50 inhibiting proliferation of tumor cells, CCRF-CEM; for IC50 for inhibiting the proliferation of tumor cells, CCRF-CEM: Table 7, designed based on BTK inhibitors, 96 h
# Outline: as §1
# [6] = tested on: Kasumi-1; assay: CCK-8 tumor cell proliferation, Kasumi-1; type: cell-based, Human; conditions: for IC50: Homo sapiens, Table 19, IRAK4 inhibitor based, Kasumi-1, read-out: IC50 inhibiting proliferation of tumor cells, Kasumi-1; for IC50 for inhibiting the proliferation of tumor cells, Kasumi-1: Table 7, designed based on BTK inhibitors, 72 h
# Outline: as §1
# [7] = tested on: SW620; assay: CCK-8 tumor cell proliferation, SW620; type: cell-based, Human; conditions: SW620, read-out: IC50 inhibiting proliferation of tumor cells, SW620
# Outline: as §1
# [8] = tested on: Mino; assay: CCK-8 tumor cell proliferation, Mino; type: cell-based, Human; conditions: for IC50: Mino, read-out: IC50 inhibiting proliferation of tumor cells, Mino; for IC50 for inhibiting the proliferation of tumor cells, Mino: Table 7, designed based on BTK inhibitors, 72 h
# Outline: as §1
# [9] = tested on: MV-4-11; assay: CCK-8 tumor cell proliferation, MV-4-11; type: cell-based, Human; conditions: for IC50: Homo sapiens, MV4-11, Table 19, IRAK4 inhibitor based, MV-4-11, read-out: IC50 inhibiting proliferation of tumor cells, MV-4-11; for IC50 for inhibiting the proliferation of tumor cells, MV-4-11: Table 7, designed based on BTK inhibitors, 72 h
# Outline: as §1
# [10] = tested on: NCI-H1666; assay: CCK-8 tumor cell proliferation, NCI-H1666; type: cell-based, Human; conditions: read-out: IC50 inhibiting proliferation of tumor cells, NCI-H1666
# Experimental: as §2, §3
# [11] = tested on: PC-3; assay: CCK-8 tumor cell proliferation, PC-3; type: cell-based, Human; conditions: Table 16, designed based on BET inhibitors; 96 h; read-out: IC50 for inhibiting the proliferation of tumor cells, PC-3
# Experimental: as §2, §3
# [12] = tested on: 22RV1; assay: CCK-8 tumor cell proliferation, 22RV1; design: species or system Human; conditions: Table 7, designed based on BTK inhibitors; 96 h
# Experimental: as §2, §3
# [13] = tested on: MM.1S; assay: CCK-8 tumor cell proliferation, MM.1S; type: cell-based; conditions: Table 7, designed based on BTK inhibitors; 72 h
# Outline: as §1
# [14] = tested on: JEKO-1; assay: CCK-8 tumor cell proliferation, JEKO-1; design: species or system Human; conditions: Table 7, designed based on BTK inhibitors; 96 h
# Experimental: as §2, §3
# [15] = tested on: THP-1; assay: CCK-8 tumor cell proliferation, THP-1; type: cell-based, Human; conditions: Table 7, designed based on BTK inhibitors; 72 h
# Experimental: as §2, §3
# [16] = tested on: MDA-MB-231; assay: CCK-8 tumor cell proliferation, MDA-MB-231; type: cell-based, Human; design: IC50 for inhibiting the proliferation of tumor cells, MDA-MB-231: scale not given here; conditions: Table 7, designed based on BTK inhibitors; 96 h
# Outline: as §1
# [17] = tested on: Vcap; assay: CCK-8 tumor cell proliferation, Vcap; type: cell-based, Human; conditions: Table 7, designed based on BTK inhibitors; 96 h
# Outline: as §1
# [18] = tested on: NCI-H1975; assay: CCK-8 tumor cell proliferation, NCI-H1975; type: cell-based, Human; conditions: Table 7, designed based on BTK inhibitors; 96 h
# Outline: as §1
# [19] = Table 19, IRAK4 inhibitor based, read-out: IC50 inhibiting proliferation of tumor cells, CAL-62
# [20] = Table 19, IRAK4 inhibitor based, read-out: IC50 inhibiting proliferation of tumor cells, Jurkat
# [21] = Homo sapiens, Table 19, IRAK4 inhibitor based
# [22] = Table 19, IRAK4 inhibitor based, read-out: IC50 inhibiting proliferation of tumor cells, MM.1R
# [23] = Homo sapiens, SW-620, Table 19, IRAK4 inhibitor based
# [24] = Homo sapiens, Table 19, given as number
"IC50 [1, 19] [nM]","IC50 [2, 20] [nM]","IC50 [3, 21] [nM]","IC50 [4, 22] [nM]",IC50 [5] [nM],IC50 [6] [nM],"IC50 [7, 23] [nM]","IC50 [8, 21] [nM]",IC50 [9] [nM],"IC50 [10, 21] [nM]","IC50 for inhibiting the proliferation of tumor cells, 22RV1 [12]","IC50 for inhibiting the proliferation of tumor cells, MM.1S [13]","IC50 for inhibiting the proliferation of tumor cells, JEKO-1 [14]","IC50 for inhibiting the proliferation of tumor cells, THP-1 [15]","IC50 for inhibiting the proliferation of tumor cells, MDA-MB-231 [16]","IC50 for inhibiting the proliferation of tumor cells, Kasumi-1 [6]","IC50 for inhibiting the proliferation of tumor cells, Mino [8]","IC50 for inhibiting the proliferation of tumor cells, Vcap [17]","IC50 for inhibiting the proliferation of tumor cells, NCI-H1975 [18]",SMILES,further results
< 50,< 50,100 to 500,< 50,< 50,< 50,< 50,< 50,< 50,100 to 500,–,–,–,–,–,–,–,–,–,"O=C1CCC(N2Cc3c(ccc(CN4CCC(n5cc(NC(=O)c6cnn7ccc(N8CCOCC8)nc67)c(C(F)F)n5)CC4)c3F)C2=O)C(=O)N1 (stereo not drawn) [GT-03810, N-(3-(difluoromethyl)-1-(1-((2-(2,6-dioxopiperidin-3-yl)-4-fluoro-1-oxoisoindolin-5-yl)methyl)piperidin-4-yl)-1H-pyrazol-4-yl)-5-morpholinopyrazolo[1,5-a]pyrimidine-3-carboxamide]",–
–,–,–,–,–,–,–,–,–,–,–,–,–,–,–,–,–,–,–,"Cc1sc2c(c1C)C(c1ccc(Cl)cc1)=N[C@@H](CC(=O)OC(C)(C)C)c1nnc(C)n1-2 [JQ-1, reference compound]",IC50 [11]: > 10000 nM
< 50,< 50,100 to 500,< 50,< 50,< 50,< 50,< 50,< 50,50 to 100,–,–,–,–,–,–,–,–,–,"O=C1CCC(N2Cc3cc(CN4CCC(n5cc(NC(=O)c6cnn7ccc(N8CCOCC8)nc67)c(C(F)F)n5)CC4)c(F)cc3C2=O)C(=O)N1 (stereo not drawn) [GT-03811, N-(3-(difluoromethyl)-1-(1-((2-(2,6-dioxopiperidin-3-yl)-6-fluoro-1-oxoisoindolin-5-yl)methyl)piperidin-4-yl)-1H-pyrazol-4-yl)-5-morpholinopyrazolo[1,5-a]pyrimidine-3-carboxamide]",–
–,–,–,–,–,–,–,–,–,–,A+,A+,A+,A+,A+,A+,A+,A+,A+,"Nc1ncnc2c1c(-c1ccc(Oc3ccccc3)cc1)nn2[C@H]1CCN(Cc2ccc3c(c2)CN(C2CCC(=O)NC2=O)C3=O)C[C@H]1F (stereo partly drawn) [GT-03331, 3-(5-(((3R,4S)-4-(4-amino-3-(4-phenoxyphenyl)-1H-pyrazolo[3,4-d]pyrimidin-1-yl)-3-fluoropiperidin-1-yl)methyl)-1-oxoisoindolin-2-yl)piperidine-2,6-dione]","IC50 for inhibiting the proliferation of tumor cells, CCRF-CEM [5]: A+; IC50 for inhibiting the proliferation of tumor cells, MV-4-11 [9]: A+"
< 50,< 50,500 to 1000,< 50,< 50,< 50,< 50,< 50,< 50,500 to 1000,–,–,–,–,–,–,–,–,–,"O=C1CCC(N2Cc3cc(CN4CCC(n5cc(NC(=O)c6cnn7ccc(N8CCOCC8)nc67)c(C(F)F)n5)CC4)ccc3C2=O)C(=O)N1 (stereo not drawn) [GT-03809, N-(3-(difluoromethyl)-1-(1-((2-(2,6-dioxopiperidin-3-yl)-1-oxoisoindolin-5-yl)methyl)piperidin-4-yl)-1H-pyrazol-4-yl)-5-morpholinopyrazolo[1,5-a]pyrimidine-3-carboxamide]",–
–,–,–,–,–,–,–,–,–,–,A+,A+,A+,–,A+,–,A+,–,A+,"Nc1ncnc2c1c(-c1ccc(Oc3ccccc3)cc1)nn2[C@H]1CCN(Cc2ccc3c(c2)CN(C2CCC(=O)NC2=O)C3=O)C[C@@H]1F (stereo partly drawn) [GT-03264, 3-(5-(((3S,4S)-4-(4-amino-3-(4-phenoxyphenyl)-1H-pyrazolo[3,4-d]pyrimidin-1-yl)-3-fluoropiperidin-1-yl)methyl)-1-oxoisoindolin-2-yl)piperidine-2,6-dione]",–
–,–,–,–,–,–,–,–,–,–,–,–,–,–,–,–,–,–,–,"CC[C@@H]1[C@H](F)C(=O)N[C@@H]1COc1nccc2cc(C(N)=O)c(OC)cc12 [PF06650833, reference compound]","IC50 ([3]; Table 19, given as number): > 10000 nM; IC50 ([7]; Table 19, given as number): > 10000 nM; IC50 ([8]; Table 19, IRAK4 inhibitor based): 5000 to 10000 nM; IC50 ([10]; Table 19, given as number): > 10000 nM"
–,–,–,–,–,–,–,–,–,–,A+,A+,A+,A+,A+,A+,A+,A+,A+,"Nc1ncnc2c1c(-c1ccc(Oc3ccccc3)cc1)nn2C1CCN(Cc2ccc3c(c2)CN(C2CCC(=O)NC2=O)C3=O)CC1 (stereo not drawn) [GT-02742, 3-(5-((4-(4-amino-3-(4-phenoxyphenyl)-1H-pyrazolo[3,4-d]pyrimidin-1-yl)piperidin-1-yl)methyl)-1-oxoisoindolin-2-yl)piperidine-2,6-dione]","IC50 ([1]; Table 23, compared to Comparative Example compounds, read-out: Inhibitory activity (IC50, nM) against tumor cell proliferation, CAL-62): < 50 nM; IC50 ([2]; Table 23, compared to Comparative Example compounds, read-out: Inhibitory activity (IC50, nM) against tumor cell proliferation, Jurkat): < 50 nM; IC50 ([4]; Table 23, compared to Comparative Example compounds, read-out: Inhibitory activity (IC50, nM) against tumor cell proliferation, MM.1R): < 50 nM; IC50 for inhibiting the proliferation of tumor cells, MV-4-11 [9]: A+"
–,–,–,–,–,–,–,–,–,–,A+,A+,A+,A+,A+,A+,–,A+,A+,"Nc1ncnc2c1c(-c1ccc(Oc3ccccc3)cc1)nn2[C@@H]1CCN(Cc2ccc3c(c2)CN(C2CCC(=O)NC2=O)C3=O)C[C@@H]1F (stereo partly drawn) [GT-03297, 3-(5-(((3S,4R)-4-(4-amino-3-(4-phenoxyphenyl)-1H-pyrazolo[3,4-d]pyrimidin-1-yl)-3-fluoropiperidin-1-yl)methyl)-1-oxoisoindolin-2-yl)piperidine-2,6-dione]","IC50 for inhibiting the proliferation of tumor cells, CCRF-CEM [5]: A+"
–,–,–,–,–,–,–,–,–,–,–,–,–,–,–,–,–,–,–,"Cc1cc(-c2nc(C(=O)Nc3cc4oc(N5CCOCC5)nc4nc3N3CC[C@@H](O)C3)co2)ccn1 [emavusertib, reference compound]","IC50 [3, 24]: > 10000 nM; IC50 ([7]; Homo sapiens, SW-620, Table 19, given as number): > 10000 nM; IC50 [8, 24]: > 10000 nM; IC50 [10, 24]: > 10000 nM"
